Reference: patent publication US4150970A, “Growth regulator for plants” (Board of Trustees of Michigan State University, priority 1977, dated 1979)

System: IR-8 rice seedlings
Test: Single versus multiple applications on rice seedlings (Example XI)
Assay type: in vivo
Procedure: Rice seed cv. IR-8, or Starbonnet was surface treated with 0.1 percent mercuric chloride and planted in 77 cc plastic cups containing vermiculite and watered with one-fourth Hoagland's nutrient solution containing 3 mM of nitrogen at pH 5.0. After 10 days, seedlings were transplanted to 220 cc specimen cups wrapped in aluminum foil and containing 180 cc of the same Hoagland's nutrient solution. Four seedlings were suspended in the solution with a sponge rubber disc. The plants were grown under a 8 h night at 25° C. and a 16 h day at 30° C. with 21 and 8 μwatts per cm^2 in the blue and red spectra respectively. In the test with varying light intensity the high light intensity was 30 13 and the low intensity was 15 and 8 μwatts per cm^2 for the blue and red spectra respectively. The nutrient solution was renewed every 2 or 3 days. After one week the plants were sorted for size and similar sized plants assigned to the same block for the experiment. Prior to the initiation of a test the plants in each cup were assigned treatment numbers by use of a random number table. […] Sixteen hours prior to a test the foil wrapped cups were tared, and filled with one-half Hoaglands solution containing 6 mM nitrogen. Eighteen μl of chloroform or chloroform containing 1.8 μg triacontanol were placed on 2 cm^2 of Whatman No. 1 filter papers, air dried and placed in the specimen cups. This concentration of 10 μg triacontanol/liter was used for all tests described in the following Examples except where specifically indicated to the contrary. Immediately prior to the test the cups were all brought up to 180 ml. including a set of cups without plants to measure evaporation.
Water uptake was measured by weighing the cups after removal of the plants and subtracting the tare and the water evaporated. For tests continued for more than one day, the solution used was measured every 3 days and new Hoagland's added and the pH maintained at 5.0 with sulfuric acid.
In this Example, the experiment determined the growth of "IR-8" rice seedlings by comparing a single application of triacontanol with multiple applications of triacontanol. Triacontanol was applied at the beginning of each indicated period.

CCCCCCCCCCCCCCCCCCCCCCCCCCCCCCO [Triacontanol, 1-triacontanol]
Dry wt (multiple applications): 286 mg/seedling
Water uptake per day (multiple applications, time period 0-2): 14.2 mL
Water uptake per day (multiple applications, time period 3-5): 22.6 mL
Water uptake per day (multiple applications, time period 6-7): 33.5 mL
Water uptake per day (multiple applications, time period 8-9): 40.2 mL
Water uptake per day (multiple applications, time period 10-12, two cups dry at harvest): 57.0 mL
Dry wt (single application): 273 mg/seedling
Water uptake per day (single application, time period 0-2): 13.9 mL
Water uptake per day (single application, time period 3-5): 21.0 mL
Water uptake per day (single application, time period 6-7): 30.0 mL
Water uptake per day (single application, time period 8-9): 35.8 mL
Water uptake per day (single application, time period 10-12, two cups dry at harvest): 56.6 mL
